# Experimental data as given in BindingDB's records for doi:10.1016/s0960-894x(99)00595-8 (Banyu Tsukuba Research Institute In Collaboration With …, 2000).
# Biological target: DNA topoisomerase 2-alpha (Homo sapiens) (UniProt P11388)
# Test: In vitro inhibition of Topoisomerase II-mediated DNA cleavage using supercoiled pBR322 plasmid DNA.
# Sequence of DNA topoisomerase 2-alpha (Homo sapiens) (P11388 whole entry, looked up): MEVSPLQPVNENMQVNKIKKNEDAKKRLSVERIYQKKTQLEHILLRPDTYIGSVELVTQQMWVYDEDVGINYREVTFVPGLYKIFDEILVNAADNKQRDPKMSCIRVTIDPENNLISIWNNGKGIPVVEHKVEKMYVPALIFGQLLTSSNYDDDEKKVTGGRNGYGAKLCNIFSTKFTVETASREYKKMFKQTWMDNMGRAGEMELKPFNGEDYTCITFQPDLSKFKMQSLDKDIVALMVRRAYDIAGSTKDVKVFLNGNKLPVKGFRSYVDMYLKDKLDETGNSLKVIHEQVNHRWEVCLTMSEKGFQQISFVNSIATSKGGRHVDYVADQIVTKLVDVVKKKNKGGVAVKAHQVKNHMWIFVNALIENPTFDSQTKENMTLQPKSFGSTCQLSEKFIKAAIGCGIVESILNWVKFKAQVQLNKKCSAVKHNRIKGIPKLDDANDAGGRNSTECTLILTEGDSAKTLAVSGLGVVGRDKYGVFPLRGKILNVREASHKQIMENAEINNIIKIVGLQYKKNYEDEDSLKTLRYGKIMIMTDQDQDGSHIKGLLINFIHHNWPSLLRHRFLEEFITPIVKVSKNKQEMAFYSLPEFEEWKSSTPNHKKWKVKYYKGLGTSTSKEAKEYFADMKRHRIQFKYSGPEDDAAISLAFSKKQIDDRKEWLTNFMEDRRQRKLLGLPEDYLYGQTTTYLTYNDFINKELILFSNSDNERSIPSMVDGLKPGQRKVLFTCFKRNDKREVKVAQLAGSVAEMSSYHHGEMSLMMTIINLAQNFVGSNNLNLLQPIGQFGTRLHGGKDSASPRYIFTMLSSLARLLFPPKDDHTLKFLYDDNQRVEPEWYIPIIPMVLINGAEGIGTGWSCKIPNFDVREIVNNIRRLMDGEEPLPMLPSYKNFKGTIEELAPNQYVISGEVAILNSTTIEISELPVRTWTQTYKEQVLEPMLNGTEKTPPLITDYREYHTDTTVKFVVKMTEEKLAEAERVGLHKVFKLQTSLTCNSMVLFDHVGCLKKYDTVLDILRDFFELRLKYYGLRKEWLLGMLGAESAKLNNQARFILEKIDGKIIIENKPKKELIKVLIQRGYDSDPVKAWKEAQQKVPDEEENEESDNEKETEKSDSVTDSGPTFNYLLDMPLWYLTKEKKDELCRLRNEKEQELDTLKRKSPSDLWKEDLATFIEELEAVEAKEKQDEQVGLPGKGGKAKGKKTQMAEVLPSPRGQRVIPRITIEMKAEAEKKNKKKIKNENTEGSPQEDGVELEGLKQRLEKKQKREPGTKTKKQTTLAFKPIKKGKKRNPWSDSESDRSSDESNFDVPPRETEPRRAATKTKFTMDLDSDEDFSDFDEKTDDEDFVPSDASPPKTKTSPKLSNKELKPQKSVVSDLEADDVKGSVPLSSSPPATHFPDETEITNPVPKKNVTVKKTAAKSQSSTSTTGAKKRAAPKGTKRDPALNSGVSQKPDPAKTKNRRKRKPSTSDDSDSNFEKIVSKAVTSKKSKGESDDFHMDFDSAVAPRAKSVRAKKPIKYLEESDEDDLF
row,Structure (SMILES),EC50
1,"O=C1c2c(c3c4cccc(O)c4n(C4OC(CO)C(O)C(O)C4O)c3c3[nH]c4ccccc4c23)C(=O)N1NC(CO)CO (stereo not drawn) [1-hydroxy-6-(2-hydroxy-1-hydroxymethylethylamino)-13-(3,4,5-trihydroxy-6-hydroxymethyltetrahydro-2H-2-pyranyl)-6,7,12,13-tetrahydro-5H-indolo[2,3-a]pyrrolo[3,4-c]carbazole-5,7-dione]",> 50 µM
2,"O=C1c2c(c3c4cccc(O)c4n(C4OC(CO)C(O)C(O)C4O)c3c3[nH]c4ccc(O)cc4c23)C(=O)N1NC(CO)CO (stereo not drawn) [1,9-dihydroxy-6-(2-hydroxy-1-hydroxymethylethylamino)-13-(3,4,5-trihydroxy-6-hydroxymethyltetrahydro-2H-2-pyranyl)-6,7,12,13-tetrahydro-5H-indolo[2,3-a]pyrrolo[3,4-c]carbazole-5,7-dione]",> 50 µM
3,"O=C1c2c(c3c4ccc(O)cc4n(C4OC(CO)C(O)C(O)C4O)c3c3[nH]c4cc(O)ccc4c23)C(=O)N1NC(CO)CO (stereo not drawn) [2,10-dihydroxy-6-(2-hydroxy-1-hydroxymethylethylamino)-12-(3,4,5-trihydroxy-6-hydroxymethyltetrahydro-2H-2-pyranyl)-6,7,12,13-tetrahydro-5H-indolo[2,3-a]pyrrolo[3,4-c]carbazole-5,7-dione]",> 50 µM
4,"O=C1c2c(c3c4cc(O)cc(O)c4n(C4OC(CO)C(O)C(O)C4O)c3c3[nH]c4c(O)cc(O)cc4c23)C(=O)N1NC(CO)CO (stereo not drawn) [1,3,9,11-tetrahydroxy-6-(2-hydroxy-1-hydroxymethylethylamino)-12-(3,4,5-trihydroxy-6-hydroxymethyltetrahydro-2H-2-pyranyl)-6,7,12,13-tetrahydro-5H-indolo[2,3-a]pyrrolo[3,4-c]carbazole-5,7-dione]",> 50 µM
5,"O=C1c2c(c3c4cc(O)ccc4n(C4OC(CO)C(O)C(O)C4O)c3c3[nH]c4c(O)cccc4c23)C(=O)N1NC(CO)CO (stereo not drawn) [1,9-dihydroxy-6-(2-hydroxy-1-hydroxymethylethylamino)-12-(3,4,5-trihydroxy-6-hydroxymethyltetrahydro-2H-2-pyranyl)-6,7,12,13-tetrahydro-5H-indolo[2,3-a]pyrrolo[3,4-c]carbazole-5,7-dione]",> 50 µM
6,"O=C1c2c(c3c4cccc(O)c4n(C4OC(CO)C(O)C(O)C4O)c3c3[nH]c4c(O)cccc4c23)C(=O)N1NC(CO)CO (stereo not drawn) [1,11-dihydroxy-6-(2-hydroxy-1-hydroxymethylethylamino)-12-(3,4,5-trihydroxy-6-hydroxymethyltetrahydro-2H-2-pyranyl)-6,7,12,13-tetrahydro-5H-indolo[2,3-a]pyrrolo[3,4-c]carbazole-5,7-dione]",> 50 µM
7,"O=C1c2c(c3c4ccccc4n(C4OC(CO)C(O)C(O)C4O)c3c3[nH]c4c(O)cccc4c23)C(=O)N1NC(CO)CO (stereo not drawn) [1-hydroxy-6-(2-hydroxy-1-hydroxymethylethylamino)-12-(3,4,5-trihydroxy-6-hydroxymethyltetrahydro-2H-2-pyranyl)-6,7,12,13-tetrahydro-5H-indolo[2,3-a]pyrrolo[3,4-c]carbazole-5,7-dione]",> 50 µM
8,"O=C1c2c(c3c4ccc(O)cc4n(C4OC(CO)C(O)C(O)C4O)c3c3[nH]c4c(O)cccc4c23)C(=O)N1NC(CO)CO (stereo not drawn) [1,10-dihydroxy-6-(2-hydroxy-1-hydroxymethylethylamino)-12-(3,4,5-trihydroxy-6-hydroxymethyltetrahydro-2H-2-pyranyl)-6,7,12,13-tetrahydro-5H-indolo[2,3-a]pyrrolo[3,4-c]carbazole-5,7-dione]",> 50 µM
9,"O=C1c2c(c3c4ccc(O)cc4n(C4OC(CO)C(O)C(O)C4O)c3c3[nH]c4ccc(O)cc4c23)C(=O)N1NC(CO)CO (stereo not drawn) [2,9-dihydroxy-6-(2-hydroxy-1-hydroxymethylethylamino)-13-(3,4,5-trihydroxy-6-hydroxymethyltetrahydro-2H-2-pyranyl)-6,7,12,13-tetrahydro-5H-indolo[2,3-a]pyrrolo[3,4-c]carbazole-5,7-dione]",> 50 µM
10,"O=C1c2c(c3c4cc(O)ccc4n(C4OC(CO)C(O)C(O)C4O)c3c3[nH]c4cc(O)ccc4c23)C(=O)N1NC(CO)CO (stereo not drawn) [2,9-dihydroxy-6-(2-hydroxy-1-hydroxymethylethylamino)-12-(3,4,5-trihydroxy-6-hydroxymethyltetrahydro-2H-2-pyranyl)-6,7,12,13-tetrahydro-5H-indolo[2,3-a]pyrrolo[3,4-c]carbazole-5,7-dione]",> 50 µM
11,"O=C1c2c(c3c4ccc(O)cc4n(C4OC(CO)C(O)C(O)C4O)c3c3[nH]c4c(O)cc(O)cc4c23)C(=O)N1NC(CO)CO (stereo not drawn) [1,3,10-trihydroxy-6-(2-hydroxy-1-hydroxymethylethylamino)-12-(3,4,5-trihydroxy-6-hydroxymethyltetrahydro-2H-2-pyranyl)-6,7,12,13-tetrahydro-5H-indolo[2,3-a]pyrrolo[3,4-c]carbazole-5,7-dione]",> 50 µM
12,"O=C1c2c(c3c4cccc(O)c4n(C4OC(CO)C(O)C(O)C4O)c3c3[nH]c4cc(O)ccc4c23)C(=O)N1NC(CO)CO (stereo not drawn) [1,10-dihydroxy-6-(2-hydroxy-1-hydroxymethylethylamino)-13-(3,4,5-trihydroxy-6-hydroxymethyltetrahydro-2H-2-pyranyl)-6,7,12,13-tetrahydro-5H-indolo[2,3-a]pyrrolo[3,4-c]carbazole-5,7-dione]",> 50 µM

# Second part, the compound after the results:
row,EC50,Structure (SMILES)
1,> 50 µM,"O=C1c2c(c3c4ccc(O)cc4n(C4OC(CO)C(O)C(O)C4O)c3c3[nH]c4ccccc4c23)C(=O)N1NC(CO)CO (stereo not drawn) [2-hydroxy-6-(2-hydroxy-1-hydroxymethylethylamino)-13-(3,4,5-trihydroxy-6-hydroxymethyltetrahydro-2H-2-pyranyl)-6,7,12,13-tetrahydro-5H-indolo[2,3-a]pyrrolo[3,4-c]carbazole-5,7-dione]"
2,> 50 µM,"O=C1c2c(c3c4cc(O)ccc4n(C4OC(CO)C(O)C(O)C4O)c3c3[nH]c4ccccc4c23)C(=O)N1NC(CO)CO (stereo not drawn) [3-hydroxy-6-(2-hydroxy-1-hydroxymethylethylamino)-13-(3,4,5-trihydroxy-6-hydroxymethyltetrahydro-2H-2-pyranyl)-6,7,12,13-tetrahydro-5H-indolo[2,3-a]pyrrolo[3,4-c]carbazole-5,7-dione]"
3,> 50 µM,"O=C1c2c(c3c4ccccc4n(C4OC(CO)C(O)C(O)C4O)c3c3[nH]c4ccc(O)cc4c23)C(=O)N1NC(CO)CO (stereo not drawn) [3-hydroxy-6-(2-hydroxy-1-hydroxymethylethylamino)-12-(3,4,5-trihydroxy-6-hydroxymethyltetrahydro-2H-2-pyranyl)-6,7,12,13-tetrahydro-5H-indolo[2,3-a]pyrrolo[3,4-c]carbazole-5,7-dione]"
4,> 50 µM,"O=C1c2c(c3c4ccccc4n(C4OC(CO)C(O)C(O)C4O)c3c3[nH]c4cccc(O)c4c23)C(=O)N1NC(CO)CO (stereo not drawn) [4-hydroxy-6-(2-hydroxy-1-hydroxymethylethylamino)-12-(3,4,5-trihydroxy-6-hydroxymethyltetrahydro-2H-2-pyranyl)-6,7,12,13-tetrahydro-5H-indolo[2,3-a]pyrrolo[3,4-c]carbazole-5,7-dione]"
5,> 50 µM,"O=C1c2c(c3c4cc(O)ccc4n(C4OC(CO)C(O)C(O)C4O)c3c3[nH]c4ccc(O)cc4c23)C(=O)N1NC(CO)CO (stereo not drawn) [3,9-dihydroxy-6-(2-hydroxy-1-hydroxymethylethylamino)-12-(3,4,5-trihydroxy-6-hydroxymethyltetrahydro-2H-2-pyranyl)-6,7,12,13-tetrahydro-5H-indolo[2,3-a]pyrrolo[3,4-c]carbazole-5,7-dione]"
6,> 50 µM,"O=C1c2c(c3c4ccccc4n(C4OC(CO)C(O)C(O)C4O)c3c3[nH]c4cc(O)ccc4c23)C(=O)N1NC(CO)CO (stereo not drawn) [2-hydroxy-6-(2-hydroxy-1-hydroxymethylethylamino)-12-(3,4,5-trihydroxy-6-hydroxymethyltetrahydro-2H-2-pyranyl)-6,7,12,13-tetrahydro-5H-indolo[2,3-a]pyrrolo[3,4-c]carbazole-5,7-dione]"
